Measured values reported in paper PMC11277145, “Wrinkle-Improving Effect of Novel Peptide That Binds to Nicotinic Acetylcholine Receptor” (International Journal of Molecular Sciences, 2024).
Where no end group is shown, it is not given here.

Key:
[1] = target: T1, nAChR subunit α1 (Homo sapiens, UniProt P02708); assay: SPR binding affinity to immobilized nAChR subunit α1
T1 construct: purchased MyBioSource MBS963713
Text: The ligand used recombinant human acetylcholine receptor subunit α1, Cat. No. MBS963713 (MyBioSource, San Diego, CA, USA), and SYN®-AKE used dipeptide diaminobutyroyl benzylamide (Cayman Chemical, Ann Arbor, MI, USA). All peptides used in this study were synthesized and supplied by Anygen (Gwangju, Republic of Korea). Phosphate-buffered saline (PBS), Tween 20, polyethylene glycol (weight-averaged molecular weight (MW) = 8000), LB agar, and bovine serum albumin (BSA) were purchased from Sigma-Aldrich (St. Louis, MO, USA). All reagents and cell culture media were purchased from WELGENE (Gyeongsan-si, Republic of Korea). The INCI name for the novel peptide is Palmitoyl Hexapeptide-93. It was synthesized by Incospharm (Daejeon, Republic of Korea), and clinical trials were conducted with a content of 500 ppm (w/v).
The SPR analysis was performed using a BIACORE 3000 (GE healthcare, Chicago, IL, USA). The nAChR subunit α1 was immobilized on a CM5 sensor chip by injecting the protein diluted in PBS (0.2 M phosphate buffer, 0.027 M KCl, 1.37 M NaCl, pH 7.4) at a concentration of 0.35 mg/mL at a flow rate of 5 μL min^−1. After, 5 μM peptide was injected into running buffer (20 mM Tris, pH 7) and its interaction with nAChR subunit α1 was measured at a flow rate of 30 μL min^−1. For kinetic experiments, peptides diluted in running buffer at concentrations ranging from […] to 200, 400, 600, 1000, and 1200 nM were injected at a flow rate of 30 μL min^−1 over the immobilized nAChR subunit α1. The association and dissociation kinetic rate constants (ka and kd) and the equilibrium […], KD, were calculated using BIAevaluation 3.1 software.

[2] = tested on: dermal fibroblasts; assay: In vitro cell viability (MTT) assay; format: cell-based, human; details: 24 h
Experimental: TE671 rhabdomyosarcoma cell line was purchased from Korea Cell Line Bank (Seoul, Republic of Korea). Dermal fibroblasts (Hs68) were purchased from American Type Culture Collection. Cells were cultured in Dulbecco’s Modified Eagle’s medium (DMEM) and medium containing 10% fetal bovine serum (FBS), 1% penicillin-streptomycin at 37 °C, and up to 5% CO2. Human skin keratinocytes (HEKn) were purchased from Thermo Fisher Scientific (Waltham, MA, USA) and cultured using keratinocyte growth medium, keratinocyte-SFM supplemented with epidermal growth factor (EGF) and bovine pituitary extract (BPE) at 37 °C, and up to 5% CO2.
The in vitro cytotoxicity of the novel peptide on cells was assessed using the MTT [(3-(4,5-dimethylthiazol-2-yl)-2,5-diphenyltetrazolium bromide] cell viability assay. Briefly, dermal fibroblasts were cultured in 24-well plates at a density of 1 × 10^5 cells/well for 18 h. After the medium was removed, the sample diluted in FBS-free medium was added and cultured for 24 h. Then, after the medium was removed, MTT solution was added at a concentration of […] and left to react for 3 h. Unreacted MTT was removed, 100 μL of DMSO was added to dissolve the formed reaction product, and the absorbance at 540 nm was measured and evaluated using an ELISA reader.

[3] = tested on: human skin; assay: Human skin irritation patch test; format: in vivo
Experimental: The skin irritation test was conducted at CRA Korea Co., Ltd. in the Republic of Korea, with the approval serial number CRA21-HIPTRP1001. The patch used was the IQ Ultra Chamber (Chemotechnique Diagnostics, Vellinge, Sweden). The human skin primary irritation test was completed, with all 31 subjects participating until the end of the study. The test area for the product was the back (excluding the spinal area). The patch was applied for 24 h and then removed. The first evaluation was conducted 30 min after patch removal while waiting for the transient erythema to disappear due to removal, and the second evaluation was conducted 24 h after patch removal. The irritation criterion used a measurement evaluation method designed by Frosch and Kligman by applying the reading standards of the International Contact Dermatitis Research Group (ICDRG).

[4] = 0.1ppm, 30 min after patch removal, 31 subjects
[5] = 0.1ppm, 24 hours after patch removal, 31 subjects
[6] = 1ppm, 30 min after patch removal, 31 subjects
[7] = 1ppm, 24 hours after patch removal, 31 subjects
[8] = 10ppm, 30 min after patch removal, 31 subjects
[9] = 10ppm, 24 hours after patch removal, 31 subjects
[10] = 100ppm, 30 min after patch removal, 31 subjects
[11] = 100ppm, 24 hours after patch removal, 31 subjects

T1 sequence (P02708 21-457): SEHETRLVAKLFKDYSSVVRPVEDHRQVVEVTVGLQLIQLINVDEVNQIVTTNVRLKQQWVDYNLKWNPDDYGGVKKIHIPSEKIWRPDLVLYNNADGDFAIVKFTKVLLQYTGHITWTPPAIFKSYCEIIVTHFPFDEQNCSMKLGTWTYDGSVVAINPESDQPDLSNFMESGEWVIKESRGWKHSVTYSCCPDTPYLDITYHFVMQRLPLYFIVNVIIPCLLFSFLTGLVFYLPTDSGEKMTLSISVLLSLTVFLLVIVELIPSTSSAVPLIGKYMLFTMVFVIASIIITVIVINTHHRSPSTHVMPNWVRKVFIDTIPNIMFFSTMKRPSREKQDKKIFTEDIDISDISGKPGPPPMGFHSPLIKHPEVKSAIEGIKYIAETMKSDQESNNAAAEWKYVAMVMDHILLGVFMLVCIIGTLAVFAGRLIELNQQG

RRGVRR [Peptide 289]
0: subjects with 1+ reaction [3, 4] | subjects with 2+ reaction [3, 4] | subjects with 3+ reaction [3, 4] | subjects with ± reaction [3, 4] | subjects with 1+ reaction [3, 5] | subjects with 2+ reaction [3, 5] | subjects with 3+ reaction [3, 5] | subjects with ± reaction [3, 5] | subjects with 1+ reaction [3, 6] | subjects with 2+ reaction [3, 6] | subjects with 3+ reaction [3, 6] | subjects with ± reaction [3, 6] | subjects with 1+ reaction [3, 7] | subjects with 2+ reaction [3, 7] | subjects with 3+ reaction [3, 7] | subjects with ± reaction [3, 7] | subjects with 1+ reaction [3, 8] | subjects with 2+ reaction [3, 8] | subjects with 3+ reaction [3, 8] | subjects with ± reaction [3, 8] | subjects with 1+ reaction [3, 9] | subjects with 2+ reaction [3, 9] | subjects with 3+ reaction [3, 9] | subjects with ± reaction [3, 9] | subjects with 1+ reaction [3, 10] | subjects with 2+ reaction [3, 10] | subjects with 3+ reaction [3, 10] | subjects with ± reaction [3, 10] | subjects with 1+ reaction [3, 11] | subjects with 2+ reaction [3, 11] | subjects with 3+ reaction [3, 11] | subjects with ± reaction [3, 11]
< 1000 nM: Kd ([1]; binding affinity to nAChR subunit α1, bound given in abstract, SPR)
No irritation: skin irritation judgement ([3]; 0.1ppm) | skin irritation judgement ([3]; 1ppm) | skin irritation judgement ([3]; 10ppm) | skin irritation judgement ([3]; 100ppm)
non-cytotoxic: cytotoxicity ([2]; up to 100 μg/mL, fibroblasts)
0.0 ± 0.00: skin reactivity score ([3]; 0.1 ppm to 100 ppm, 24 h patch, back, 31 subjects)
no toxicity: cytotoxicity ([2]; 0.1 ppm to 100 ppm, dermal fibroblasts, 540 nm)
0.0±0.00%: Average response (%) ([3]; 0.1ppm, 31 subjects) | Average response (%) ([3]; 1ppm, 31 subjects) | Average response (%) ([3]; 10ppm, 31 subjects) | Average response (%) ([3]; 100ppm, 31 subjects)
14900 M⁻¹ s⁻¹: kon ([1]; SPR, 200-1200 nM, 20 mM Tris pH 7, 30 μL/min, read-out: ka)
0.00906 s⁻¹: koff ([1]; pH 7, read-out: dissociation rate constant (kd))
non-irritation: skin irritation ([3]; 0.1 ppm to 100 ppm, Frosch and Kligman and COLIPA criteria, 31 subjects)
609 nM: Kd ([1]; equilibrium dissociation constant (KD), SPR, 200-1200 nM, 20 mM Tris pH 7, BIAevaluation 3.1)
